The values that follow are results of earlier work, collected in US20080090885A1 (priority 2006, published 2008).

Each structure is given as a SMILES string.

For data set [1] the following is noted: for half-life: in vivo.
In data set [2] the target is T1, AT1 receptor (Homo sapiens, UniProt P30556).
T1 sequence (P30556 1-359): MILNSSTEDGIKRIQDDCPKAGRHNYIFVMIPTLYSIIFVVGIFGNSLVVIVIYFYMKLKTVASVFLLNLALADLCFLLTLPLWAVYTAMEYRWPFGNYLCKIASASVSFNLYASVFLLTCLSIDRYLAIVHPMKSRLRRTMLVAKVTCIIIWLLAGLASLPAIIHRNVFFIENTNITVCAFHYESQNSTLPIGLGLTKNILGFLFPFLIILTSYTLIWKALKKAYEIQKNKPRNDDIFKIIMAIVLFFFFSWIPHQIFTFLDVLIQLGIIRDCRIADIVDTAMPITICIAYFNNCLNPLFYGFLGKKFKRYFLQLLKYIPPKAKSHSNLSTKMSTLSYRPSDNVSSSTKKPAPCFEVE

Regarding `CCCCc1nc(Cl)c(C(=O)O)n1Cc1ccc(-c2ccccc2-c2nn[nH]n2)cc1` [EXP-3174, losartan 5-carboxylic acid], the half-life in data set [1] is 6 to 9 h. In addition, the “type of AT1 receptor antagonism” value in data set [2] is “non-competitive AT1 receptor antagonist”.
`CCCCc1nc(Cl)c(CO)n1Cc1ccc(-c2ccccc2-c2nn[nH]n2)cc1` [Losartan]: the half-life entry in data set [1] was “about 2 hours”. For the same molecule, in data set [1] (oral), the oral bioavailability result was “about 33%” and the “peak plasma levels (time to peak)” value is 1 h. Also, in data set [2], the “type of AT1 receptor antagonism” value is recorded as “potent, competitive AT1 receptor antagonist”.
